Assay results as given in patent US9682126B2, “Postprandial gastrokinetic agent” (ZERIA PHARMACEUTICAL CO., LTD., priority 2013, dated 2017).
Read-outs that look alike come from different tables or passages of the source. Ends that are not written are not given here. * marks the point of attachment. Octanoyl = CCCCCCCC(=O)*

Assays:
subjects = conditions: cited from earlier work
[1] = tested on: isolated stomach of Suncus murinus; conditions: ghrelin alone, even at a high dose, in vitro; cited from earlier work
Suncus murinus [2] = assay: Gastric motility in interdigestive period, sham-operated vs vagotomized (Example 2); type: in vivo; conditions: for amplitude of spontaneous phase II contractions: ghrelin 0.1, 0.3, 1, 3, or 10 μg/kg/min iv over 10 minutes in phase II
Description: Each of Suncus motilin (Scrum Inc., Tokyo, Japan) and human ghrelin (Asubio Pharma Co., Ltd., Hyogo, Japan) were dissolved in PBS containing 0.1% bovine serum albumin. Suncus murinus (male, outbred KAT strain, 7 to 15 weeks old, 60 to 100 g) was used for the experiment. Each animal was bred in a plastic cage provided with an empty can as a nest box under the following conditions: temperature at 23±2° C., illumination between 8:00 and 20:00, and free intake of commercial trout feed (SP, Nippon Formula Feed Mfg Co., Ltd., Yokohama, Japan). After 3 hours of fasting, Suncus murinus was anesthetized by an intraperitoneal injection of pentobarbital sodium (50 mg/kg). Through a midline incision, the stomach was exposed outside the body, and a force transducer was fixed via suture in the circular muscle direction of the body of stomach. The wire extending from the force transducer was inserted through the abdominal wall, passed under the skin, and exposed at the back of the neck. Thereafter, truncal vagotomy was performed. A lower portion of the esophagus was exposed, both branches of the vagus nerve were isolated, and about 3 mm of the vagus nerve was excised above the hepatic branch and the celiac branch. For sham-operated Suncus murinus, the vagus nerve was exposed, but not excised. An intravenous catheter was inserted in the right jugular, and extracorporeally fixed to the back. The catheter was filled with heparinized saline (100 units/mL) to prevent clotting. From 2 days after the operation, the gastric motility was recorded. Administration of motilin was initiated 10 minutes after completion of spontaneous phase III. Synthesized suncus motilin was continuously injected at 50 ng/kg/min over 10 minutes, and the continuously injected amount was 50 μL/100 g BW/min. Administration of ghrelin was initiated 10 minutes after completion of spontaneous phase II. […] Amplified analog signals were converted into digital signals by an analog-to-digital converter (ADC-20, Pico Technology Ltd, St Neots, UK), and the digital signals were recorded on a computer. Phase III contractions of MMC in conscious Suncus murinus were defined on the basis of those in dogs and humans (that is, clustered contractions with an amplitude of 8 g or more that lasts for 5 minutes or more). Gastric motility was quantitated using a motility index (MI). A motility index (MI) based on a drug was calculated using the following equation. MI (%)=A/B×100 A: AUC of contractions for 10 minutes during which the drug was administered B: […] Statistical analysis After ANOVA, Student's t test was performed.

Suncus murinus [3] = assay: Postprandial motility by co-administration of ghrelin and motilin, ΔMI (Example 3); type: in vivo
Description: Each of Suncus motilin (Scrum Inc., Tokyo, Japan) and human ghrelin (Asubio Pharma Co., Ltd., Hyogo, Japan) was dissolved in PBS containing 0.1% bovine serum albumin.
Suncus murinus (male, outbred KAT strain, 7 to 39 weeks old, 56 to 91 g) was used for the experiment. The Each animal was bred in a plastic cage provided with an empty can as a nest box under the following conditions: temperature at 23±2° C., illumination between 8:00 and 20:00, and free intake of commercial trout feed (SP, Nippon Formula Feed Mfg Co., Ltd., Yokohama, Japan).
After 3 hours of fasting, Suncus murinus was anesthetized by an intraperitoneal injection of pentobarbital sodium (50 mg/kg). Through a midline incision, the stomach was exposed outside the body, and a force transducer was fixed via suture in the circular muscle direction of the body of stomach. The wire extending from the force transducer was inserted through the abdominal wall, passed under the skin, and exposed at the back of the neck.
An intravenous catheter was inserted in the right jugular, and extracorporeally fixed to the back. The catheter was filled with heparinized saline (100 units/mL) to prevent clotting.
Each of the operated Suncus murinus was allowed to recover for several days.
Drug administration and measurement of gastric motility were performed in the conscious, free-moving state without anesthesia.
2 g of feed was given to each Suncus murinus fastened (for 8 to 10 hours) for 10 minutes. After the intake of feed for 10 minutes, ghrelin (50, 1,000, or 3,000 ng/kg), motilin (300, 500, 1,000, or 3,000 ng/kg), or a mixed solution of ghrelin (15 or 50 ng/kg) and motilin (100, 200, or 300 ng/kg) was intravenously administered through a jugular vein catheter rapidly.
Amplified analog signals were converted into digital signals by an analog-to-digital converter (ADC-20, Pico Technology Ltd, St Neots, UK), and the digital signals were recorded on a computer.
Phase III contractions of MMC in conscious Suncus murinus were defined on the basis of those in dogs and humans (that is, clustered contractions with an amplitude of 8 g or more that lasts for 5 minutes or more).
Gastric motility was quantitated using a motility index (ΔMI). A motility index (ΔMI) based on a drug was calculated using the following equation. ΔMI (%)=(A−C)/B×100 A: AUC of contractions for 10 minutes during which the drug was administered B: AUC of 10-minute spontaneous phase III contractions appeared before administration of the drug C: (AUC of contractions appeared for 5 minutes between 5 and 10 minutes after the intake of feed)×2 (2) Results (FIG. 9) A. Action of Ghrelin Alone

Suncus murinus [4] = assay: Postprandial gastric motility, force transducer on stomach, motility index MI (Example 1); type: in vivo; conditions: ghrelin 50 ng/kg iv after 10-min feed intake
Description: Effects of administration of each of ghrelin and motilin and co-administration of ghrelin and motilin on postprandial gastric motility in Suncus murinus were studied. Each of Suncus motilin (Scrum Inc., Tokyo, Japan) and human ghrelin (Asubio Pharma Co., Ltd., Hyogo, Japan) was dissolved in phosphate buffered saline (PBS) containing 0.1% bovine serum albumin. Suncus murinus (male, outbred KAT strain, 8 to 9 weeks old, 73 to 90 g) was used for the experiment. Each animal was bred in a plastic cage provided with an empty can as a nest box under the following conditions: temperature at 23±2° C., illumination between 8:00 and 20:00, and free intake of commercial trout feed (SP, Nippon Formula Feed Mfg Co., Ltd., Yokohama, Japan). After 3 hours of fasting, Suncus murinus was anesthetized by an intraperitoneal injection of pentobarbital sodium (50 mg/kg). Through a midline incision, the stomach was exposed outside the body, and a force transducer was fixed via suture in the circular muscle direction of the body of stomach. […] Amplified analog signals were converted into digital signals by an analog-to-digital converter (ADC-20, Pico Technology Ltd, St Neots, UK), and the digital signals were recorded on a computer. […] Gastric motility was quantitated using a motility index (MI). A motility index (MI) based on a drug was calculated using the following equation. […]

[5] = ghrelin 50 ng/kg iv after feed intake
[6] = ghrelin 1,000 ng/kg iv after feed intake
[7] = ghrelin 3,000 ng/kg iv after feed intake

CC[C@H]1OC(=O)[C@H](C)[C@@H](O[C@H]2C[C@@](C)(OC)[C@@H](O)[C@H](C)O2)[C@H](C)[C@@H](O[C@@H]2O[C@H](C)C[C@H](N(C)C(C)C)[C@H]2O)[C@@]2(C)CC(C)=C(O2)[C@H](C)C(=O)[C@]1(C)OC [mitemcinal]
gastric emptying (subjects; mitemcinal administered to fasting subjects): enhances gastric emptying

ghrelin: human ghrelin (Asubio Pharma); 28-amino acid residue peptide, hydroxyl group of serine at position 3 esterified by octanoic acid (GSS(Octanoyl)FLSPEHQRVQQRKESKKPPAKLQPR; UniProt Q9UBU3 24-51, looked up)
gastric contractions [1]: does not accelerate gastric contractions | MI during administration of ghrelin, sham-operated compared with vagotomized (Suncus murinus [2]; phase II of MMC, fasted): higher | amplitude of spontaneous phase II contractions (Suncus murinus [2]; sham-operated): amplified the amplitude of spontaneous phase II contractions | amplitude of spontaneous phase II contractions (Suncus murinus [2]; vagotomized): did not change the amplitude of spontaneous phase II contractions | gastric emptying (subjects; continuous intravenous or massive administration of ghrelin after food intake, healthy subjects and patients with diabetes): accelerates gastric emptying | Motility Index (ΔMI) (Suncus murinus [3]; [5]): About 2.8% | contractions of the body of the stomach (Suncus murinus [3]; [5]): did not induce contractions of the body of the stomach | Motility Index (ΔMI) (Suncus murinus [3]; [6]): About 7.6% | contractions of the body of the stomach (Suncus murinus [3]; [6]): did not induce contractions of the body of the stomach | Motility Index (ΔMI) (Suncus murinus [3]; [7]): About 0.03% | contractions of the body of the stomach (Suncus murinus [3]; [7]): did not induce contractions of the body of the stomach | contractions of the body of the stomach (Suncus murinus [4]): did not induce contractions of the body of the stomach
